Activity calls are given as the source filed them.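 Rule for the calls: active = compounds giving half or more protection of infected cells from virus-caused growth loss, again on retest; inactive = the rest.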

This test concerns CEM cells HIV-1 protection, formazan growth assay. Put plainly: NCI AIDS Antiviral Assay. To be noted: for IC50: measured here: growth of uninfected CEM cells. In a few lines: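 Protection of CEM cells against HIV-1 was scored from cell growth (soluble formazan) across five concentrations, with parallel uninfected cells. Lack of protection may reflect toxicity.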

As usually defined, the EC50 is the midpoint of the concentration-response curve. One may read the IC50 as the concentration at which inhibition is half-maximal. Turning to `C/C=C(/C)C(=O)O[C@@H]1CCN2CC[C@H](COC(=O)/C(=C/C)CO)C12` (stereo partly specified), the EC50 is > 200 µM and the IC50 turned out to be 107 µM.

As for `CC(O)c1ccc[n+](Cc2ccccc2)c1` (stereo unspecified), the EC50 is > 1000 µM and the IC50 came to 776 µM.

Take `CN(C)C1=CC(=O)c2ccccc2C12CO2` (stereo unspecified): the EC50 was > 234 µM and the IC50 is 41.7 µM.

For `O=c1[nH]nc(Cc2ccc([N+](=O)[O-])cc2)n1CCO`, the EC50 is > 200 µM and the IC50 was > 200 µM.

With `CCN=C(NC(=O)c1ccccc1Cl)SCSC(=NCC)NC(=O)c1ccccc1Cl`, the EC50 was > 200 µM and the IC50 is > 200 µM.

For `CCCCCCN(CCCCCC)C(F)(F)C(=O)Nc1ccc(S(=O)(=O)c2ccc(NC(=O)C(F)(F)N(CCCCCC)CCCCCC)cc2)cc1`, the EC50 is > 100 µM and the IC50 came out at 5.13 µM.

For `CCCCN1C(=O)C(=O)N(c2ccccc2C(F)(F)F)C1=O`, the EC50 was > 200 µM and the IC50 worked out at 158 µM.

As for `CC12CCC(=O)C=C1CCC1C2CCC2(C)C1CCC2(O)C1(O)CCC2C3CCC4=CC(=O)CCC4(C)C3CCC21C` (stereo unspecified), the EC50 is > 100 µM and the IC50 was found to be 55 µM.

As to `C[C@]12CC[C@H](CC=C(c3cc(Cl)c(O)c(C(=O)O)c3)c3cc(Cl)c(O)c(C(=O)O)c3)C[C@@H]1CC[C@@H]1[C@@H]2CC[C@]2(C)[C@@H](CC=C(c3cc(Cl)c(O)c(C(=O)O)c3)c3cc(Cl)c(O)c(C(=O)O)c3)CC[C@@H]12`, the EC50 was 28.8 µM and the IC50 came out at 45.7 µM.

With `Nc1ccc2n[se]nc2c1`, the outcome was inactive.

On to `NC(N)=NCCN1CCCCCc2ccccc21`, for which the EC50 was > 200 µM and the IC50 was determined as 20.9 µM.

`CN(C)CCNC(=O)c1ccc(Cl)c2c(Nc3ccc(S(=O)(=O)N=C(N)N)cc3)c3ccccc3nc12`: the result was inactive.

For the molecule `OC1(c2cccnc2)c2ccccc2Oc2ccccc21`, the EC50 is > 200 µM and the IC50 came out at 79.4 µM.

In the case of `NS(=O)(=O)c1ccc(NC(=S)/N=C\c2c(O)[nH]c(=O)[nH]c2=O)cc1`, the EC50 was > 200 µM and the IC50 is > 200 µM.

In the case of `NCCC(=O)NCS(=O)(=O)O`, the EC50 is > 200 µM and the IC50 was > 200 µM.

For `CCCCCCCCCCCCNC1=C(Cl)C(=O)C(=O)c2cccnc21`, the EC50 came to 53.7 µM and the half-maximal inhibitory concentration (IC50) is 174 µM.

In the case of `[Li+]`, the result was inactive.

For the molecule `Cc1cc(=O)oc2cc(O)c(O)cc12`, the EC50 was > 200 µM and the IC50 was 27.5 µM.

Turning to `COc1ccc(/C=N/Nc2ccc(S(=O)(=O)O)cc2)cc1`, the EC50 is > 759 µM and the IC50 stood at 331 µM.

As to `CCCCCCOC(=O)c1[nH]c(=O)[nH]c(=O)c1N`, the EC50 was > 200 µM and the half-inhibitory concentration (IC50) was > 200 µM.

As to `CN1c2ccccc2C2=C(C(=O)CCS2)S1(=O)=O`, the EC50 was > 35.5 µM and the IC50 is > 35.5 µM.

Take `c1ccc(P(=Nc2ccccc2N=P(c2ccccc2)(c2ccccc2)c2ccccc2)(c2ccccc2)c2ccccc2)cc1`: the outcome was inactive.

For the molecule `C/C(=N/OC(=O)N(C)C)c1cc(Cl)ccc1Cl`, the EC50 was > 200 µM and the IC50 stood at 135 µM.

As for `N#Cc1ccccc1NC(=O)C(=O)C(C(=O)c1ccccc1-c1ccccc1)C1OC(=O)c2ccccc21` (stereo unspecified), the EC50 is > 52.5 µM and the IC50 was found to be 26.3 µM.

Consider `Cc1ccc(CS(=O)C(Cl)(Cl)c2ccc(C)cc2)cc1` (stereo unspecified), for which the EC50 was > 41.7 µM and the IC50 was determined as 15.5 µM.

In the case of `CCCCCCCCCCCCCCCCCC(=O)NCC(COP(=O)([O-])OCC[N+](C)(C)C)OC` (stereo unspecified), the result was inactive.

For the molecule `O=C(/C=C/c1ccco1)c1ccc(NCc2nc3ccccc3[nH]2)cc1`, the EC50 is > 20.9 µM and the IC50 was > 20.9 µM.

Turning to `c1ccc2sc(SN3CCOCC3)nc2c1`, the EC50 is > 10.7 µM and the IC50 is > 10.7 µM.

Regarding `CC1(CC(=O)O)OC2CCCCCC2O1` (stereo unspecified) (tested in a mixture with another compound), the result was inactive.

For `CC(=O)OCC12CC(CC1OC(C)=O)c1ccccc12` (stereo unspecified), the EC50 was > 251 µM and the IC50 is > 251 µM.

Turning to `CCOc1cnc([C@H]2CCC3[C@@H]4CC=C5C[C@@H](OC(C)=O)CC[C@]5(C)C4CC[C@@]32C)s1` (stereo partly specified), the EC50 is > 21.4 µM and the IC50 was > 21.4 µM.

`O=S1CCCCS1` (stereo unspecified): the EC50 was > 912 µM and the IC50 is 17.4 µM.

Regarding `O=C1OC(=O)c2c1ccc1ccccc21`, the EC50 was > 50.1 µM and the IC50 was > 50.1 µM.

Regarding `Cc1cn(CCCCCOC(=O)NC(CCCN=C(N)N)C(=O)O)c(=O)[nH]c1=O` (stereo unspecified), the EC50 is > 200 µM and the IC50 worked out at 18.2 µM.

In the case of `CSc1cc(=O)[nH]c(=O)[nH]1`, the EC50 was > 200 µM and the IC50 was > 200 µM.

As to `COc1ccc(C(OCC2OC(n3ccc(Oc4c(F)c(F)c(F)c(F)c4F)nc3=O)CC2OP(OCCC#N)N(C(C)C)C(C)C)(c2ccccc2)c2ccc(OC)cc2)cc1` (stereo unspecified), the EC50 was > 200 µM and the IC50 is 89.1 µM.

With `O=C(c1ccccn1)c1nc(-c2ccc(Cl)c(Cl)c2)nc2ccc(Cl)cc12`, the outcome was inactive.

For the molecule `Cc1noc(NS(=O)(=O)c2ccc(NC(=S)/N=C/C(C(=O)c3ccccc3)=C(\O)c3ccccc3)cc2)c1C`, the EC50 was > 200 µM and the IC50 worked out at 120 µM.

As for `O=C(NCCc1c[nH]c2ccccc12)C(F)(F)C(F)(F)F`, the EC50 was > 200 µM and the IC50 amounted to 38 µM.

On to `O=C(C(/C=N/C(=S)NCc1ccccc1)=C(/O)c1ccccc1)c1ccccc1`, for which the EC50 is > 200 µM and the IC50 came to 30.9 µM.

On to `Cc1ccc(N=NN(C)C)cc1NC(=O)NCC(=O)OC(C)(C)C`, for which the EC50 was > 200 µM and the IC50 came to 107 µM.

Regarding `COC(O)C(=O)c1c2c(cc3c1CCC3)CCCC2` (stereo unspecified), the EC50 is > 200 µM and the IC50 was 6.17 µM.

Regarding `CCO[C@H]1OC(=O)[C@@H]2C(c3ccc(F)cc3)=NO[C@H]12`, the EC50 was > 135 µM and the IC50 is > 135 µM.

`O=C(Cc1ccccc1)NN1C(=O)/C(=C\c2ccc(O)cc2)SC1=Nc1ccccc1`: the EC50 is > 31.6 µM and the IC50 is > 31.6 µM.

For the molecule `CCCCCCCCCCCCOC(=S)NCCCC`, the result was inactive.

Turning to `Cc1oc2c(c1C)S(=O)(=O)C(C#N)=C(c1ccccc1)N2`, the EC50 was > 200 µM and the IC50 is > 200 µM.

Regarding `COC(=O)C(=O)C(C(=O)C(=O)Nc1ccccc1C(N)=O)c1nc2ccc(Cl)cc2[nH]c1=O` (stereo unspecified), the EC50 is > 75.9 µM and the IC50 was > 75.9 µM.

With `Cn1cc2ccccc2c1-c1nc(N)nc(F)n1`, the EC50 was > 107 µM and the IC50 worked out at 64.6 µM.

`COC1Cc2c(C)c(OC(C)=O)c3cccnc3c2O1` (stereo unspecified): the EC50 is > 200 µM and the IC50 was 22.4 µM.

Take `O=C1CC[C@@H](S(=O)(=O)c2ccccc2)[C@@H](/C=C/c2ccccc2)O1`: the outcome was inactive.

For the molecule `COC(=O)C(Br)C1CCc2ccccc21` (stereo unspecified), the EC50 was > 251 µM and the IC50 amounted to 141 µM.

In the case of `O=C(OCC(Cl)(Cl)Cl)OCC(Cl)(Cl)Cl`, the EC50 was > 200 µM and the IC50 was > 200 µM.

For the molecule `CC1=CC(C)(c2c[nH]c3ccccc23)CC(C)(C)c2c1[nH]c1ccccc21` (stereo unspecified), the result was inactive.
